One may read the ED50 as the dose that gives a 50% effect, or the effect in half of the subjects. A high value points to a need for a large dose. By Ki is commonly meant the dissociation constant of the complex between target and ligand, obtained from inhibition or displacement.

Assay [1] deals with Rattus norvegicus. Kind of assay: Compound was evaluated for intracranial self-stimulation in rat after intraperitoneal administration. The conditions noted are these: ip. The assay is classed as functional.
Assay [2] relates to Rattus norvegicus. Kind of assay: Compound was evaluated for pole-climb avoidance in rat after peroral administration. Particulars: po. The assay is classed as functional.
Assay [3] deals with Rattus norvegicus. Kind of assay: Compound was evaluated for inhibition of apomorphine-induced stereotypy behavior in rats after intraperitoneal administration. It is filed as functional. The conditions noted are these: ip.
Assay [4] deals with Rattus norvegicus. Kind of assay: Compound was evaluated for pole-climb avoidance (escape failures) in rat after peroral administration. It is filed as functional. Particulars: po.
The target in assay [5] is T1, 5-hydroxytryptamine receptor 1A (Rattus norvegicus, UniProt P19327).
T1 sequence (P19327 whole entry): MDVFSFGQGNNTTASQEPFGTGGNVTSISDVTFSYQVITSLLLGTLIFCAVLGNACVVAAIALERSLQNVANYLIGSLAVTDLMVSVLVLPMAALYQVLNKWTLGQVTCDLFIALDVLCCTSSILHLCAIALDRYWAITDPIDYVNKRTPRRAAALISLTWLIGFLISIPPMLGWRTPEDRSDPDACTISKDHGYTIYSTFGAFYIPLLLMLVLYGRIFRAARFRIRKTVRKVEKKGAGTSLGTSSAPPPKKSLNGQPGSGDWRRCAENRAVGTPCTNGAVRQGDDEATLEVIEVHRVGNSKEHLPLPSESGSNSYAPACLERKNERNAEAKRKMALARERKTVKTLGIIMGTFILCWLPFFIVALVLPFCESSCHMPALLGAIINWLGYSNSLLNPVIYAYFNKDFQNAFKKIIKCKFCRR
Kind of assay: Compound was evaluated for in vitro binding affinity towards serotonin 5-hydroxytryptamine 1A receptor receptor in rat hippocampus using [3H]8-OH-DPAT as radioligand. It is filed as tissue-based.

Assay [6] has as its target Serotonin 2 (5-HT2) receptor (Rattus norvegicus, UniProt P30994+P08909+P14842). As to the kind of experiment: Compound was evaluated for in vitro binding affinity towards serotonin 5-hydroxytryptamine 2 receptor in rat cortex using [3H]- spiperone as radioligand.
For assay [7], the system named is Mus musculus. Kind of assay: Compound was evaluated for inhibition of apomorphine-induced climbing in mouse after peroral administration. The assay is classed as functional. The conditions noted are these: po.
The next assay addresses D(1A) dopamine receptor (Rattus norvegicus, UniProt P18901). Kind of assay: Compound was evaluated for in vitro binding affinity towards Dopamine receptor D1 in striatum using [3H]- SCH 23390 as radioligand. It is filed as tissue-based.
Assay [8] concerns Mus musculus. As to the kind of experiment: Compound was evaluated for inhibition of apomorphine-induced climbing in mouse after intraperitoneal administration. Particulars: ip. The assay is classed as functional.

A value given as a limit tells only on which side of the number the result lay.

Chain of D(1A) dopamine receptor (P18901 whole entry): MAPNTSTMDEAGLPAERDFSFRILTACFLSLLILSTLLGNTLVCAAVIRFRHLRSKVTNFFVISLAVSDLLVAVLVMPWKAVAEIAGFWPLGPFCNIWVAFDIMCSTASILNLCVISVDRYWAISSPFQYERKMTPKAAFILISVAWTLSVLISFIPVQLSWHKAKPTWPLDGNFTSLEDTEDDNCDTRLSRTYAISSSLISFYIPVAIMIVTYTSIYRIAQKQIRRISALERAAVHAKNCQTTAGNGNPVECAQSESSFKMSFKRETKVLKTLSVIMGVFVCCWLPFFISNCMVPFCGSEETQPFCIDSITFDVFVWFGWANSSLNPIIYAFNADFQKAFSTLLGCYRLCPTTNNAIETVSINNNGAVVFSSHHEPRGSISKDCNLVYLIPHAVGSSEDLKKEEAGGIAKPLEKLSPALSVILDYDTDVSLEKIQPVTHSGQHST

With `O=C(CCCN1CCC(O)(c2ccc(Cl)cc2)CC1)c1ccc(F)cc1` [HALOPERIDOL], the ED50 came to 0.077 mg/kg with Rattus norvegicus [1], 1.1 mg/kg in the assay on Rattus norvegicus [2], 0.576 mg/kg in the assay on Rattus norvegicus [3] and 14.1 mg/kg in the assay with Rattus norvegicus [4].

`CN1CCN(C2=Nc3cc(Cl)ccc3Nc3ccccc32)CC1` [CLOZAPINE]: the ED50 was 12.7 mg/kg with Rattus norvegicus [2], greater than 40 mg/kg with Rattus norvegicus [3] and 33.1 mg/kg with Rattus norvegicus [4].

Take `CC1SC(C)(C)C(=O)N1CCCCN1CCN(c2csc3cc(F)ccc23)CC1` (stereo unspecified): the values for the inhibitory constant (Ki) (in assay [5]; in [6]; on D(1A) dopamine receptor) were 40 nM, 20 nM and 2740 nM, respectively. In addition, the ED50 with Rattus norvegicus [1] is 4.7 mg/kg; in the assay with Rattus norvegicus [2] it was 5.46 mg/kg; in the assay on Mus musculus [7], 15.4 mg/kg; in the assay on Rattus norvegicus [3], 61.4 mg/kg; with Mus musculus [8] it was 2.5 mg/kg; with Rattus norvegicus [4] it was greater than 20 mg/kg.

Source of the values: ChEMBL document CHEMBL1126190, “3-[4-[1-(6-Fluorobenzo[b]thiophen-3-yl)-4-piperazinyl]butyl]- 2,5,5-trimethyl-4-thiazolidinone: a new atypical antipsychotic agent for the treatment of schizophrenia” (J Med Chem, 1992).
